Reference: patent publication US6005007A, “Retinoids, methods for their production and use” (priority 1997, dated 1999)

How the values were obtained:
Type in all cases: cell-based
RXRα = target: T1, RXRα (Homo sapiens, UniProt P19793); experiment: Co-transfection assay, RXRα agonist activity; set-up: expressed in transfected cells; host or cells: CV-1 (African green monkey kidney fibroblasts); conditions: CV-1 cells, luciferase reporter, read-out: RXRα Pot
T1 sequence (P19793 1-462): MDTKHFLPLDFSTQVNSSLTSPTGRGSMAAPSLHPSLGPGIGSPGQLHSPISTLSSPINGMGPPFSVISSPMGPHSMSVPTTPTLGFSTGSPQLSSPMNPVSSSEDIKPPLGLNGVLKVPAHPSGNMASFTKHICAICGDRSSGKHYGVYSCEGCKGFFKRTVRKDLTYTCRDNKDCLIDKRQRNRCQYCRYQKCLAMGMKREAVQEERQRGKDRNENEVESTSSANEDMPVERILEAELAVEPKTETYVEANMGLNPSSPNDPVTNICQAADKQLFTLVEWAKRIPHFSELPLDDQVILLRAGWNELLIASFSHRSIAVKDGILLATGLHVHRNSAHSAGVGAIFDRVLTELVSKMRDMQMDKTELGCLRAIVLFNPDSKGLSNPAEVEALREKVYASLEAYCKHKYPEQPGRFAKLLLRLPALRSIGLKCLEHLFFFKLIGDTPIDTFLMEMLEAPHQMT

RAR and RXR receptors = experiment: Co-transfection assay, RAR and RXR subfamilies (summary in words); conditions: CV-1 cells
Protocol: Utilizing the "cis-trans" or "co-transfection" assay described by Evans et al., Science, 240:889-95 (May 13, 1988), the disclosure of which is herein incorporated by reference, the retinoid compounds of the present invention were tested and found to have strong, specific activity as either selective RXR agonists, or as pan-agonist activators of both RAR and RXR receptors. This assay is described in further detail in U.S. Pat. Nos. 4,981,784 and 5,071,773, the disclosures of which are incorporated herein by reference.
In the co-transfection assay, a cloned cDNA for an IR (e.g., human RARα, RARβ, RXRγ) under the control of a constitutive promoter (e.g., the SV 40 promoter) is introduced by transfection (a procedure to induce cells to take up foreign genes) into a background cell substantially devoid of endogenous IRs. This introduced gene directs the recipient cells to make the IR protein of interest. A second gene is also introduced (co-transfected) into the same cells in conjunction with the IR gene. This second gene, comprising the cDNA for a reporter protein, such as firefly luciferase (LUC), controlled by an appropriate hormone responsive promoter containing a hormone response element (HRE). This reporter plasmid functions as a reporter for the transcription-modulating activity of the target IR. Thus, the reporter acts as a surrogate for the products (mRNA then protein) normally expressed by a gene under control of the target receptor and its native hormone.
The co-transfection assay can detect small molecule agonists or antagonists of target IRs. Exposing the transfected cells to an agonist ligand compound increases reporter activity in the transfected cells. This activity can be conveniently measured, e.g., by increasing luciferase production, which reflects compound-dependent, IR-mediated increases in reporter transcription. […]. Increasing concentrations of a suspected antagonist will decrease the reporter signal (e.g., luciferase production). The co-transfection assay is therefore useful to detect both agonists and antagonists of specific IRs. […]

RXRγ = target: T2, RXRγ (Mus musculus, UniProt P28705); experiment: Co-transfection assay, RXRγ agonist activity; conditions: CV-1 cells, luciferase reporter, read-out: RXRγ Pot
T2 construct: expressed in transfected cells; host or cells: CV-1 (African green monkey kidney fibroblasts)
T2 sequence (P28705 1-463): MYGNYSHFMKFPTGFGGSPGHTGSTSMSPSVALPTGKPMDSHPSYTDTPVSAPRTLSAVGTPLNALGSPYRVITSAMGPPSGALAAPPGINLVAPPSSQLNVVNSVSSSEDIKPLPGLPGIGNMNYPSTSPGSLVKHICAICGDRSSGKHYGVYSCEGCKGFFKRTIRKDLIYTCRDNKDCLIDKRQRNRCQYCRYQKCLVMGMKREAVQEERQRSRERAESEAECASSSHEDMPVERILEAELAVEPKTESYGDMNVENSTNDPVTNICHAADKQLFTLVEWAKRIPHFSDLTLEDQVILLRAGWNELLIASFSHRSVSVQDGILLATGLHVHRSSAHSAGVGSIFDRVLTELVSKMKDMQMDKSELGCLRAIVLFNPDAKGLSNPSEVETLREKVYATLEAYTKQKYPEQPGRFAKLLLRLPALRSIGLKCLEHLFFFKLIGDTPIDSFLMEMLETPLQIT

EC50 (RXRα) [µM]	RXR selectivity / pan-agonist activity (RAR and RXR receptors)	EC50 (RXRγ) [µM]	SMILES
0.034	extremely potent RXR selective compounds	0.02	CC(/C=C/CC1(c2cc(C(C)(C)C)cc3c2CCC3(C)C)CC1)=C\C(=O)O [Compound 107, (2E, 4E)-6-[1-(6-t-butyl-1,1-dimethyl-indan-4-yl)-cyclopropyl]-3-methyl hexadienoic acid]
0.063	extremely potent RXR selective compounds	0.066	CC(/C=C/CC1(c2ccc3c(c2)C(C)(C)CCC3(C)C)CCCC1)=C\C(=O)O [Compound 108, (2E, 4E)-6-[(5,5,8,8-Tetramethyl-5,6,7,8-tetrahydronaphtha-len-2-yl)cyclopentane-1-yl]-3-methyl hexadienoic acid]

SMILES	EC50 (RXRα) [µM]	RXR selectivity / pan-agonist activity (RAR and RXR receptors)	EC50 (RXRγ) [µM]
CC(/C=C/CC1(c2ccc3c(c2)C(C)(C)CCC3(C)C)CC1)=C\C(=O)O [Compound 101, (2E, 4E)-6-[1-(5,5,8,8-Tetramethyl-5,6,7,8-tetrahydronaphtha-len-2-yl)cyclopropanyl]-3-methyl hexadienoic acid]	0.013	pan-agonists that display superior potency profiles to that of the known pan-agonist compound 9-cis retinoic acid	0.014
